In one experiment the test system is Jurkat. The experiment in a line: Cell proliferation modulatory activity, Jurkat. Conditions: Homo sapiens. The experiment is classed as cell-based.
The target in the next experiment is recombinant human PIM1 (Homo sapiens (Human), UniProt P11309). The experiment in a line: PIM-1 kinase activity in cell-free in vitro assay. Conditions: cell-free assay; for inhibition at 0.5 µM: 500 nM compound, read-out: PIM-1: % inh 500 nM. Format: biochemical.
In the next experiment the target is recombinant human CK2 (Homo sapiens (Human), UniProt P68400). The experiment in a line: CK2 assay (cell-free, 33P-ATP filter plate). Format: biochemical. Conditions: 500 nM compound, cell-free assay; read-out: CK2: % inh 500 nM.
Sequence of recombinant human CK2 (P68400 whole entry): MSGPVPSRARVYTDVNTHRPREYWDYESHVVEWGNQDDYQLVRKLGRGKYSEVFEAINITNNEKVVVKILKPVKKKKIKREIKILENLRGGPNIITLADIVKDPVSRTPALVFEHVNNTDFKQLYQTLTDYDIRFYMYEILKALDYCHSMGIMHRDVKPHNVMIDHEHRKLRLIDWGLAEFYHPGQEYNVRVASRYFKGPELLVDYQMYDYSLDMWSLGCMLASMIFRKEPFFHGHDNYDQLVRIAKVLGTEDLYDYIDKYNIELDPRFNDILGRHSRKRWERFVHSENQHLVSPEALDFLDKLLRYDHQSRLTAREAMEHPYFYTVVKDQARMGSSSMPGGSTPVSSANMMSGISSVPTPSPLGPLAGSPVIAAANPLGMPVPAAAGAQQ
Sequence of recombinant human CK2 (P67870 whole entry partner): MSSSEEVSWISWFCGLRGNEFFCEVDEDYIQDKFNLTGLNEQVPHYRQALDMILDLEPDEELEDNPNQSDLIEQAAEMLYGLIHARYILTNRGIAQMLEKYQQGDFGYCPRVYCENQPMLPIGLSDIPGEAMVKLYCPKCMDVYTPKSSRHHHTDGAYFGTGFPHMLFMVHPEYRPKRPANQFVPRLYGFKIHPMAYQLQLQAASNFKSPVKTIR
The test system of experiment [1] is HCT-116 human colorectal carcinoma cells. The experiment in a line: Cell-proliferation assay using Alamar Blue dye.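 Note: cells exposed to compound for about 4 days, then Alamar Blue added and dye fluorescence read after about 4 h, compared with medium-only control wells.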 Format: cell-based. Conditions: Homo sapiens, HCT-116, second HCT-116 column (c8); read-out: HCT-116 (uM) cell proliferation modulatory activity. (In general: Alamar Blue is a resazurin reagent that responds to reducing activity.)
The test system of a further experiment is MV-4-11. The experiment in a line: Cell proliferation modulatory activity, MV-4-11. Format: cell-based. Conditions: Homo sapiens, MV4-11; MV-4-11 cells.
Another experiment concerns K-562. The experiment in a line: Cell proliferation modulatory activity, K-562. Format: cell-based. The following applies: Homo sapiens, K562; K-562 cells.

Sequence of recombinant human PIM1 (P11309 whole entry): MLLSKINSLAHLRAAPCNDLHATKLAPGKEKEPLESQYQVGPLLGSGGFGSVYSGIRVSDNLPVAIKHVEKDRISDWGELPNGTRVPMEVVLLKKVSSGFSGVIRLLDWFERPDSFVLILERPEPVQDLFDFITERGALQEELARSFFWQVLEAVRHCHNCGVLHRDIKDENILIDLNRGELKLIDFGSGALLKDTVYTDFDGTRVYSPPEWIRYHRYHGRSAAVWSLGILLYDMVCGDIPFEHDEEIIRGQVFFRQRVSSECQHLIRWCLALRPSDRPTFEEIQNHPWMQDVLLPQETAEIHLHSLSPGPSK

Compound `O=C(O)c1ccc2c(c1)nc(Nc1ccccc1)c1nc(NCCCO)ncc12` registered an IC50 in the experiment on Jurkat of 7.9 µM. In addition, the inhibition at 0.5 µM on recombinant human PIM1 came out at 49.3%.
Consider `O=C(O)c1ccc2c(c1)nc(Nc1cccc(C(F)(F)F)c1)c1ncncc12`, for which the IC50 in the experiment with Jurkat turned out to be 2.53 µM.
Still for that read-out and setting: under `CCNc1ncc2c(n1)c(Nc1cccc(Cl)c1)nc1cc(C(=O)O)ccc12` stands 3.06 µM.
For the compound `COC(=O)c1ccc2c(c1)nc(NCCOC(C)C)c1ccncc12`, the inhibition at 0.5 µM on recombinant human PIM1 is 39.1%; on recombinant human CK2, 15.6%. Moreover, the IC50 was more than 10 µM in experiment [1], 2.94 µM with MV-4-11 and more than 10 µM in the experiment on K-562.
For the compound `N#Cc1ccc2c(c1)nc(Nc1ccc(Cl)cc1)c1cscc12`, the inhibition at 0.5 µM on recombinant human PIM1 was -35.8%; on recombinant human CK2 it was -2.49%. The IC50 (in experiment [1]; in the experiment with MV-4-11; in the experiment on K-562) was more than 10 µM throughout.
Compound `NC(=O)CCNc1ncc2c(n1)c(Nc1cccc(Cl)c1)nc1cc(C(=O)O)ccc12` displayed an IC50 in the experiment on Jurkat of 37.7 µM.
`Cc1c(-c2ccccc2)nn(C)c1Nc1nc2cc(C(=O)O)ccc2c2cnccc12`: the inhibition at 0.5 µM on recombinant human PIM1 was 26.2%; at recombinant human CK2, 76.2%. The IC50 in experiment [1] was 2.34 µM; in the experiment on MV-4-11, 1.43 µM; in the experiment with K-562, more than 10 µM.
For `CN(C)CCNc1nc2cc(C(N)=O)ccc2c2sccc12` the same measures were 34%, 15.6%, 4.29 µM, 0.402 µM and 0.198 µM.
For `Cc1nccn1CCNc1nc2cc(C#N)ccc2c2sccc12` the same measures were 8.62%, -15.7%, more than 10 µM, more than 10 µM and more than 10 µM.
For `O=C(O)c1ccc2c(c1)nc(Nc1cccc(Cl)c1)c1nccnc12`, in that order: 9.61%, 69.3%, more than 10 µM, 5.81 µM and more than 10 µM.
With `O=C(O)c1ccc2c(c1)nc(NCCc1ccccc1)c1cccnc12`, the inhibition at 0.5 µM on recombinant human PIM1 came out at 13.7%; on recombinant human CK2 it was 5.71%. Besides, the IC50 (in experiment [1]; in the experiment on MV-4-11; in the experiment with K-562) was more than 10 µM in each case.
Consider `CCN(c1ccccc1)c1nc2cc(C(=O)O)ccc2c2cnccc12`, for which the inhibition at 0.5 µM amounted to 28% at recombinant human PIM1 and 91.8% at recombinant human CK2. Also, the IC50 in experiment [1] was more than 10 µM; in the experiment with MV-4-11 it was more than 10 µM; with K-562, 0.339 µM.
With `N#Cc1ccc2c(c1)nc(NCC1CCCN1)c1ccsc12` (centres unmarked), the inhibition at 0.5 µM at recombinant human PIM1 is 14.1%; at recombinant human CK2 it was -23.8%. Moreover, the values for the IC50 (in experiment [1]; in the experiment with MV-4-11; in the experiment with K-562) were 2.73 µM, 2.44 µM and more than 10 µM, respectively.
Regarding `O=C(O)c1ccc2c(c1)nc(Nc1cccc(Cl)c1)c1cccnc12`, the inhibition at 0.5 µM stood at 59.9% at recombinant human PIM1 and 61.1% at recombinant human CK2. Also, the IC50 on recombinant human PIM1 was 0.634 µM; in experiment [1], more than 10 µM; in the experiment with MV-4-11, more than 10 µM; in the experiment with K-562, more than 10 µM.
With `COC(=O)c1ccc2c(c1)nc(NCCCOC(C)C)c1ccncc12`, the inhibition at 0.5 µM was 24.2% on recombinant human PIM1 and 90.9% on recombinant human CK2. Moreover, the IC50 in experiment [1] was more than 10 µM; in the experiment on MV-4-11, 6.42 µM; in the experiment with K-562 it was more than 10 µM.
Consider `CC1(C)CC(Nc2nc3cc(C#N)ccc3c3sccc23)CC(C)(C)N1`, for which the inhibition at 0.5 µM at recombinant human PIM1 is -1.38%; on recombinant human CK2, -3.98%. The figures for the IC50 (in experiment [1]; in the experiment on MV-4-11; in the experiment with K-562) were 6.75 µM, 9.88 µM and more than 10 µM, respectively.
`Cn1cnnc1-c1cccc(Nc2nc3cc(C(=O)O)ccc3c3cnccc23)c1`: the inhibition at 0.5 µM at recombinant human PIM1 was 54.9%; at recombinant human CK2, 94.4%. Moreover, the IC50 was 0.344 µM at recombinant human PIM1, more than 10 µM in experiment [1], more than 10 µM in the experiment on MV-4-11 and more than 10 µM in the experiment with K-562.
Consider `CCn1c2ccccc2c2cc(Nc3nc4cc(C(=O)O)ccc4c4cnccc34)ccc21`, for which the inhibition at 0.5 µM at recombinant human PIM1 was 32.6%; on recombinant human CK2, 98.1%. The IC50 in experiment [1] worked out at 9.82 µM; with MV-4-11, 3.28 µM; with K-562 it was 0.11 µM.
For `CC(C)Nc1ncc2c(n1)c(N(C)c1ccccc1)nc1cc(C(=O)O)ccc12`, in that order: 39.9%, 91.7%, more than 10 µM, more than 10 µM and more than 10 µM.
With `N#Cc1ccc2c(c1)nc(NCCn1cccc1)c1ccsc12`, the inhibition at 0.5 µM at recombinant human PIM1 is -25.6%; at recombinant human CK2, -22.3%. Further, the IC50 was more than 10 µM in experiment [1], more than 10 µM in the experiment with MV-4-11 and 6.07 µM with K-562.
Consider `CC(C)(C)OC(=O)N1CCN(c2nc3cc(C#N)ccc3c3sccc23)CC1`, for which the results for the inhibition at 0.5 µM on recombinant human PIM1 and on recombinant human CK2 were -30.9% and -35%, respectively. Further, the IC50 (in experiment [1]; with MV-4-11; in the experiment on K-562) was more than 10 µM throughout.
Regarding `N#Cc1ccc2c(c1)nc(N1CCC(N3CCCC3)CC1)c1ccsc12`, the results for the inhibition at 0.5 µM at recombinant human PIM1 and on recombinant human CK2 were 35.7% and -6.67%, respectively. In addition, the results for the IC50 (in experiment [1]; in the experiment with MV-4-11; in the experiment on K-562) were 5.66 µM, 3.36 µM and 6.94 µM, respectively.
For `Fc1cccc(Nc2nc3cc(-c4nnn[nH]4)ccc3c3cscc23)c1` the same measures were 14%, 52.6%, more than 10 µM, more than 10 µM and more than 10 µM.
Take `CN1CCC(Nc2nc3cc(-c4nnn[nH]4)ccc3c3sccc23)CC1`: the inhibition at 0.5 µM on recombinant human PIM1 turned out to be 83.9%; at recombinant human CK2, 1.28%. The IC50 at recombinant human PIM1 was 0.161 µM; in experiment [1], more than 10 µM; in the experiment with MV-4-11, more than 10 µM; with K-562 it was more than 10 µM.
Turning to `Clc1nc2ccccc2c2cnccc12`, the figures for the inhibition at 0.5 µM on recombinant human PIM1 and on recombinant human CK2 were -2.61% and 9.99%, respectively. Moreover, the IC50 (in experiment [1]; with MV-4-11; in the experiment on K-562) was more than 10 µM in each case.
Consider `CC1(C)CC(Nc2nc3cc(-c4nnn[nH]4)ccc3c3sccc23)CC(C)(C)N1`, for which the values for the inhibition at 0.5 µM on recombinant human PIM1 and on recombinant human CK2 were 32.7% and -5.33%, respectively. Also, the IC50 (in experiment [1]; with MV-4-11; in the experiment on K-562) was more than 10 µM in each case.
For the compound `CCN1CCC[C@H]1CNc1nc2cc(-c3nnn[nH]3)ccc2c2sccc12`, the figures for the inhibition at 0.5 µM on recombinant human PIM1 and on recombinant human CK2 were 84.1% and 59.8%, respectively. The IC50 on recombinant human PIM1 was 0.118 µM; in experiment [1], more than 10 µM; with MV-4-11, more than 10 µM; in the experiment on K-562, more than 10 µM.
Turning to `CC(C)(C)OC(=O)NCCCNc1nc2cc(C#N)ccc2c2sccc12`, the inhibition at 0.5 µM was -30.8% on recombinant human PIM1 and -11.5% on recombinant human CK2. Also, the IC50 (in experiment [1]; in the experiment with MV-4-11; in the experiment with K-562) was more than 10 µM in each case.
As to `COC(=O)c1ccc2c(c1)nc(N(C)CCc1ccccn1)c1ccncc12`, the inhibition at 0.5 µM on recombinant human PIM1 is -5.84%; at recombinant human CK2, -3.68%. In addition, the IC50 (in experiment [1]; in the experiment on MV-4-11; in the experiment on K-562) was more than 10 µM throughout.

For the origin of these results see patent publication US8168651B2, “Protein kinase modulators” (Cylene Pharmaceuticals, Inc., priority 2008, dated 2012).
